Results as given in patent US8252832B2, “Kinesin inhibitors as cancer therapeutics” (Novartis AG, priority 2007, dated 2012).
Like-named read-outs stand apart in the source and are kept apart here.

Tests used:
[1] = HCT116 tumor xenograft model, host response (body weight, survival, neutrophils); format: in vivo, mouse; settings: 30 mg/kg, i.p., q4d × 3
Description: The cell line HCT-116 has been widely used in the evaluation of mitotic inhibitors such as microtubule disruptors, mitotic kinase inhibitors and KSP inhibitors. A multi-dose efficacy study on a […] (q4d×3) dosing schedule was performed. Experiments were performed using outbred athymic nu/nu mice approximately 6-8 weeks old (Charles River Laboratories, Hollister, Calif.). […] Mice were housed 4-5 animals per cage in clear polycarbonate micro-isolator cages with a 12-hour light, 12-hour dark cycle at temperatures between 70-80 degrees Fahrenheit and 30-70% relative humidity. Food (Purina rodent chow pellets) and water were provided ad libitum. Mice were handled in accordance with Novartis ACUC regulations and guidelines and the ILAR Guide for the Care and Use of Laboratory Animals. Experiments were performed in an AAALAC accredited facility under an ACUC approved protocol.
Compound IIa (free base) and SB-715992 (ispinesib, a KSP inhibitor by Cytokinetics that is in clinical trials; as its free base) were formulated in 20% Captisol® for all the above doses for a dose volume of 8 mL/kg. Doses were adjusted to each animal's body weight.
Female nu/nu mice (Charles River, Hollister, Calif.) were injected subcutaneously in the right flank with 5 million HCT-116 tumor cells suspended in Hank's Balanced Salt Solution (HBSS) in a total volume of 0.1 mL/mouse. For the efficacy studies, mice were randomized 10 days post-implant. […] Tumor volume was calculated as (L×W2)/2. […] Percent treatment/control (T/C) values were calculated using the following formula: % T/C=100×ΔT/ΔC
Since a dose as low as 1.25 mg/kg on a q4d×3 schedule induced regression of HCT116 xenografts, the efficacy study was repeated with a range of doses from 2 to 0.125 mg/kg to observe a dose response and determine how low a dose can be given to induce tumor regression. […] Only the 7.5 mg/kg dose of SB-715992 induced tumors to regress. Additionally, 72 hrs after the last dose, blood was collected to compare the circulating neutrophil levels among groups. Neutrophils were reduced in a dose responsive manner, similar to the tumor efficacy effect.

[2] = system: MV4; 11 human AML subcutaneous xenograft tumors; experiment: Subcutaneous MV4; 11 tumor xenograft model, tumor response; format: in vivo, mouse; settings: 1 mg/kg, q4d × 3, i.p.
Description: Subcutaneous tumor efficacy studies were performed using outbred athymic nu/nu mice approximately 6-8 weeks old (Charles River Laboratories, Hollister, Calif.). The efficacy study in the disseminated disease model was performed using immunodeficient NOD-SCID female mice approximately 7-8 weeks old (Jackson Laboratories, Bar Harbor, Me.). […] Routine animal care and assurance of welfare were as described above.
Human MV4; 11 acute myelogenous leukemia cells were obtained from American Tissue Culture Collection (catalog #CRL-9591, Rockville, Md.) and tested to be free of Mycoplasma sp. and murine viruses in the IMPACT1 PCR assay panel (RADIL, University of Missouri, Columbia, Mo.). For the disseminated disease model, a stable pool of MV4; 11 cells expressing the luciferase gene was received from Fangxian Sun at the Genomics Institute of the Novartis Research Foundation in San Diego, Calif. (MV4; 11-luc). The MV4; 11 cells were grown in Iscove's modified Dulbecco's medium (Mediatech Inc., catalog #15-016-CV) supplemented with 10% fetal bovine serum (JRH Biosciences, catalog #12003-1000M), 4 mM L-glutamine and 5 ng/mL recombinant human […] (GM-CSF) (R&D Systems, catalog #215-GM). MV4; 11-luc were grown in the same media, but with the addition of 2 micrograms/mL of puromycin for selection of luciferase expression. These cells were grown as suspension cultures, maintained at 37° C. in a humidified atmosphere containing 5% carbon dioxide. Cells were cultured for fewer than 10 passages prior to use. Cells were harvested at approximately 2 million cells/mL, and centrifuged at ˜800×g for 5 minutes at 4° C. and then resuspended in a cold HBSS (Mediatech Inc., catalog #21-021-CV) at a concentration of 25 million cells/mL (containing 50% Matrigel™, BD Biosciences, catalog #354234) for implantation subcutaneously (injection volume of 0.2 mL) or at a concentration of 100 million cells/mL for implantation intravenously (i.v.) via the tail vein (injection volume of 0.1 mL). Mice were irradiated with 3 gray for 3 minutes one day prior to the i.v. cell implant.
The compound IIa (free base) and SB-715992 (free base) were formulated in 20% Captisol for a dose volume of 8 mL/kg. Doses were adjusted to each animal's body weight.
For the two efficacy evaluations in the subcutaneous tumor model, 10 million cells combined in a 1:1 mixture of HBSS and Matrigel™ were injected subcutaneously in the right flank in a total volume of 0.2 mL/mouse. […] Tumor volume was calculated as (L×W2)/2.

[3] = 30 mg/kg, i.p., q4d × 3
Description: Experiments were performed using outbred athymic nu/nu mice (Charles River Laboratories) approximately 6-8 weeks old. Upon arrival, animals received a subcutaneous microchip implant (AVID, Folsom, La.) in the subscapular region for identification of individuals. Animals were allowed to acclimatize for 1 week before any experimental procedures began.
Compound IIa, compound IIc, compound IIa (shown below), and SB-715992 were formulated in a Captisol®-based formulation. Doses were administered intravenously (i.v.) and adjusted to each animal's body weight. Formulations were made once at the beginning of study and stored at room temperature. Clinical grade paclitaxel was purchased pre-mixed in a cremophor-based vehicle (Mayne Pharma, now Hospira, Lake Forest, Ill., catalog #NDC-6170334209) and diluted in sterile saline to provide a dose volume of 16 mL/kg for a 30 mg/kg dose administered intraperitoneally (i.p.)
For the efficacy studies, mice were enrolled with a mean tumor volume of approximately 300 mm^3. Tumor xenografts were measured in two dimensions (L and W) with digital calipers twice weekly from the start of dosing on Day 0. Tumor volume was calculated as (L×W^2)/2. Body weights were measured twice weekly and clinical observations were recorded daily. Tumor volume and body weights were captured and stored by StudyDirector software (StudyLog, South San Francisco, Calif.).

CC(=O)O[C@H]1C(=O)[C@@]2(C)[C@H]([C@H](OC(=O)c3ccccc3)[C@]3(O)C[C@H](OC(=O)[C@H](O)[C@@H](NC(=O)c4ccccc4)c4ccccc4)C(C)=C1C3(C)C)[C@]1(OC(C)=O)CO[C@@H]1C[C@@H]2O [Paclitaxel, reference compound]
Survival (alive/total) [1]: 9/9
CR (complete tumor regressions) [2]: 7
Δ Tumor volume, Day 24 [2]: −151 ± 63 mm^3
% Max Regression (Day) ([2]; D46): 75%
CR (complete tumor regressions) ([2]; listed as paclitaxel): 7/9
Survival (alive/total) [3]: 9/9
Survival (alive/total) ([3]; Table 14 study): 9/9
Survival (alive/total) ([3]; Table 15 study): 10/10
